Series [1] has as its target T1, leucine aminopeptidase (Sus scrofa, UniProt P15145).
T1 sequence (P15145 1-963): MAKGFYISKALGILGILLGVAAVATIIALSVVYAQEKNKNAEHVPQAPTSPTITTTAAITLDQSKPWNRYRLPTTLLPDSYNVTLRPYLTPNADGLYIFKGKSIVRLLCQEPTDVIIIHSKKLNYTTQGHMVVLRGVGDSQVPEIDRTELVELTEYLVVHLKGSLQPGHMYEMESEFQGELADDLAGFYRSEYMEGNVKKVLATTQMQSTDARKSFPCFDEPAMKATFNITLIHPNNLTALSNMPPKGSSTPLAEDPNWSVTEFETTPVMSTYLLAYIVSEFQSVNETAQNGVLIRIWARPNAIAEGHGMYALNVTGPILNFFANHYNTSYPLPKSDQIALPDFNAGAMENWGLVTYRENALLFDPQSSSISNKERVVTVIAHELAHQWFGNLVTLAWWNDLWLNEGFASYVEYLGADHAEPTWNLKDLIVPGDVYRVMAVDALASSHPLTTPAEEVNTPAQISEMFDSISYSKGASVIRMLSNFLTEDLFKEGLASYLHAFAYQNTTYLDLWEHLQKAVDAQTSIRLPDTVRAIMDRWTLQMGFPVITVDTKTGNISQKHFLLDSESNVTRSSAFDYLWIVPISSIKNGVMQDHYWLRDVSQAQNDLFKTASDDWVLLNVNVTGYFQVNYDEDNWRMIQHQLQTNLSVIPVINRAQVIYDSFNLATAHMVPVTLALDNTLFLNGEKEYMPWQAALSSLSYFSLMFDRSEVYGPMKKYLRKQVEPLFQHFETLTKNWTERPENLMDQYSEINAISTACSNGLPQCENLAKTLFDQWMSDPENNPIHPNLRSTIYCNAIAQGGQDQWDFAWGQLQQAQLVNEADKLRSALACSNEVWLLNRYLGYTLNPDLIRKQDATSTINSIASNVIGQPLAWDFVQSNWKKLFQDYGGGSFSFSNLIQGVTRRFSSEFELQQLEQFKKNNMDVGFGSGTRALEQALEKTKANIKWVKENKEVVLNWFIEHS
The settings on record: pH 7.
Protocol: (§1) After a 30-min enzymatic activation, the stock solutions of three thymopoietin oligopeptides were added into the above solution and made the final concentration of peptides at 0.1 mM. At specified time intervals after adding peptide, 100 µL aliquots were sampled and diluted with an equal volume of 1 M perchloric acid incubated in an ice bath to stop reaction. Meanwhile, a 100 mL aliquot of the abovementioned buffer was added to the incubation medium. […] All experiments were replicated at least three times.
(§2) Cldeg was determined by linear regression analysis from plots of ΣM versus the AUC at different time points [3, 11].

The target in series [2] is T1, leucine aminopeptidase. Put plainly: leucine aminopeptidase-mediated degradation of thymopoietin oligopeptides (degradation kinetics and clearance). The settings on record: peptide 0.1 mM, LAP 0.01 U/mL, Krebs phosphate buffer pH 7.0, 37 °C, RP-HPLC, Cldeg from ΣM versus AUC, at least three replicates.
Protocol: as §1, §2
Series [3] in a line: cobalt ion chelation-mediated fluorescence recovery of calcein. The series is classed as physicochemical. The settings on record: calcein 0.0625 µg/mL, calcein:cobalt dichloride 1:1 molar, normalized maximum fluorescence emission F/F0, excitation 490 nm. The text has this: It is well known that calcein fluorescence can be strongly quenched by cobalt ions at physiological pH, while removal of cobalt ion from the complex by EDTA-mediated chelation will lead to a significant increase in fluorescence intensity. Thus, the chelating capacity of the resultant conjugate can be determined by measuring the cobalt ion-chelating-mediated fluorescence recovery of calcein. […] The excitation wavelength of calcein was set at 490 and its emission was monitored in the range of 500–650 nm. The slits of excitation and emission were set at 5 and 3 nm, respectively. All background effects were subtracted. In addition, the same experiment was done in the presence of EDTA.

Like-named read-outs stand apart in the source and are kept apart here. Residues, ends and D or L forms follow the SMILES beside them.

For `N=C(N)NCCC[C@H](N)C(=O)N[C@@H](CCCCN)C(=O)N[C@@H](CC(=O)O)C(=O)O` [TP3, Thymotrinan] (H-Arg-Lys-Asp-OH), the “order of susceptibility to leucine aminopeptidase (degradation clearance)” value at leucine aminopeptidase [1] is listed as “TP4 > TP5 > TP3”.

Consider `CC(C)[C@H](NC(=O)[C@H](CC(=O)O)NC(=O)[C@H](CCCCN)NC(=O)[C@@H](N)CCCNC(=N)N)C(=O)O` [TP4, thymocartin] (H-RKDV-OH), for which the “order of susceptibility to leucine aminopeptidase (degradation clearance)” value at leucine aminopeptidase [2] is listed as “TP4 > TP5 > TP3”. Consider `O=C(O)CN(CCN(CC(=O)O)CC(=O)O)CC(=O)O` [EDTA, ethylene diamine tetraacetic acid], for which the “EDTA group concentration above which the calcein fluorescence plateau was reached (almost complete removal of cobalt ions from the calcein/cobalt ion complex)” value in series [3] was “higher than 0.67 µM”.

The record behind these values is paper PMC6152209, “Synthesis, Characterization and In Vitro Evaluation of a Novel Glycol Chitosan-EDTA Conjugate to Inhibit Aminopeptidase-Mediated Degradation of Thymopoietin Oligopeptides” (Molecules : A Journal of Synthetic Chemistry and Natural …, 2017).
